Key:
[1] = system: antennae of housefly, sand fly, and mosquitoes (Aedes aegypti, Aedes increpitus, Anopheles gambiae); test: GC-EAD antennal responses to SPME samples of patchouli essential oil; conditions: component of patchouli essential oil SPME sample; response by one or more of the insects; FIG. 2
Protocol: (§1) The following procedures were employed to test the EAD response of an insect antenna to a repellent compound. The GC-EAD technique provides an efficient tool for screening behaviorally active repellents. Several synthetic mixtures of potential insect repellent candidates, mostly sesquiterpene hydrocarbons and derivatives, were analyzed in splitless mode using a Varian CP-3800 GC equipped with a polar column (Innowax; 1.0 μm film thickness, 30 m×0.53 mm ID; J & W Scientific), and a 1:1 effluent splitter that allowed simultaneous flame ionization detection (FID) and EAD of the separated volatile compounds. Helium was used as the carrier gas, and the injector temperature was 220° C. The column temperature was 50° C. for 2 min, rising to 240° C. at 10° C./min, then held for 10 min. The outlet for the EAD was held in a humidified air stream flowing at 0.5 liter/min. over an antennal preparation. A glass capillary indifferent electrode filled with Beadle-Ephrussi Ringer, and grounded via a silver wire, was inserted into the severed insect's head with the antennae. A similar recording electrode connected to a high-impedance DC amplifier with automatic baseline drift compensation was placed in contact with the distal end of one antenna (Zhang et al., Chemoecology, 10:69-80 (2000)). The antennal signals were stored and analyzed on a PC equipped with a serial IDAC interface box and the program EAD ver. 2.5 (Syntech, Hilversum, The Netherlands). The compound 1-octen-3-ol (known attractant for many flies and mosquitoes) was included in most of the synthetic mixtures, as a positive control.

[2] = system: Aedes aegypti; test: Y-tube olfactometer behavioral bioassay (spatial repellency); type: in vivo
Protocol: (§2) Aegypti and An. stephensi, and one species of sand fly, P. papatasi. Both the mosquitoes and the sand flies used in the study were from colonies maintained at the Walter Reed Army Institute of Research, Department of Entomology, Silver Spring, Md. This Y-tube bioassay system, equipped with CO2-enriched air (ca. 1 l/min) as an attractant, was made from three clear acrylic tubes (4″ diameter; 12″ length) with symmetrical 120° angles among the three tube arms; and a screen butterfly valve on the top part of the bottom releasing tube. These spatial repellency tests were carried out during 8:00 am-12:00 pm (photophase) time period for Ae. aegypti and 1:00-5:00 pm (shifted scotophase) time period for the species of night-flying mosquitoes and sand fly in a temperature and humidity controlled testing room (23-25° C. and 20-40% RH). Female mosquitoes or sand flies were stored at ˜25-26° C., 50-89% RH, 12:12 hr. (L/D), fed with 10% sucrose solution before testing. The candidate chemical (individual or mixture) dispenser and a blank control were placed in the upper left or right arm of the Y-tube before releasing 25-40, 6 to 10 day-old female mosquitoes (or 3 to 10 day-old sand flies) into the bottom tube via a small hole. After a 30-60 sec acclimation period, the butterfly screen valve (door) on the top of the bottom tube was opened. After 10 min., the valve was closed and the numbers of mosquitoes or sand flies in each arm (including the bottom tube) were counted. In order to minimize the position effect, the same experiment was repeated once with the treatment and blank control arms shifted using a new (clean) Y-tube olfactometer and a new batch of mosquitoes/sand flies. Data from these two replicates were pooled for χ2 goodness of fit test (df=1) between the treatment and blank control.

[3] = system: Anopheles stephensi; test: as above; type: in vivo
Protocol: as §2

[4] = system: Phlebotomus papatasi; test: as above; type: in vivo
Protocol: as §2

[5] = system: Aedes aegypti; test: K&D module behavioral bioassay (topical repellency, biting); type: in vivo
Protocol: (§3) The bioassays were conducted with a six-cell in vitro K&D module system, as disclosed in Klun and Debboun, J. Med. Entomol. 37:177-181 (2000), loaded with an “artificial blood” (CPDA+ATP) solution.
(§4) Clove essential oil, patchouli oil, and EAD-active potential repellents, β-caryophyllene, isocaryophyllene, (+)-longifolene, and their 1:1:1 mixture, plus α-guaiene, caryophyllene oxide, and a β-caryophyllene ketone, were tested using the six-cell in vitro K&D module system (Klun and Debboun, J. Med. Entomol. 37:177-181 (2000)) loaded with an “artificial blood” (CPDA+ATP) solution on both Ae. aegypti and An. stephensi in a dose-response fashion. The K&D in vitro assay system has three components: (1) a Plexiglas™ 29.7 cm.×7.1 cm K&D module composed of six adjacent cells, each designed to hold mosquitoes and each having a rectangular 3×4 cm floor hole that is opened and closed by a sliding door; (2) a Plexiglas™ six-well 29.7 cm×7.1 cm water water-bath warmed (38° C.) reservoir with six 3×4 cm wells designed to match the sliding-door openings of the K&D module base and to contain 6 mL warmed “artificial blood” wells covered with a collagen membrane; and (3) a 29.7 cm×7.1 cm'0.4 cm Teflon® separator having six rectangular openings like the K&D module. The K&D module was connected to a constant temperature water circulator at 38° C. The cells were covered with an Edicol collagen membrane strip. Nylon organdy strips with ink cell patterns were numbered and randomly treated with […] of the tested chemical in ethanol (ethanol alone as blank control), plus DEET (ca. 10 μg/cm^2) as a positive control. This treated nylon organdy strip was placed on top of the collagen membrane. The upper section of the K & D module with the six cells each containing 5 mosquitoes (5-10 d old, starved for 24 hr before testing) was placed on top of the nylon strip. The doors to the cells were slid open so the mosquitoes could be free to feed on the “artificial blood” via the collagen membrane if they were hungry. The experiments were allowed to run for 3 minutes, and the number of mosquitoes feeding (biting) in each cell was recorded. After each experiment, the nylon and collagen strips were removed. The CPDA+ATP solution was removed and allowed to dry prior to starting the next experiment. The experiments on each chemical and each mosquito species were run three times before the bottom section with circulated water was cleaned prior to use again.

[6] = system: Anopheles stephensi; test: as above; type: in vivo
Protocol: as §3, §4

[7] = system: Aedes Aegypti, Anopheles stephensi and the sand fly P. papatasi; test: Y-tube bioassay, statements pooled for the three species; type: in vivo, Aedes aegypti; Anopheles stephensi; Phlebotomus papatasi; conditions: clove oil ca. 10 mg/day, patchouli oil 15 mg/d, sesquiterpenes 1 to 35 mg/d release
Protocol: as §2

[8] = system: antennae of housefly, sand fly, and mosquitoes Aedes aegypti, Anopheles gambiae, Anopheles stephensi; test: GC-EAD antennal responses to SPME samples of clove essential oil; conditions: component of clove essential oil SPME sample; response by one or more of the insects; FIG. 1
Protocol: The GC-EAD antennal response of a female housefly (Musca domestica), sand fly (Phlebotomus papatasi), and mosquitoes including the species Aedes aegypti, Anopheles gambiae, and Anopheles stephensi were tested with clove essential oil. FIG. 1 is a simultaneous recording of GC flame ionization detection (FID) and electroantennographic detection (EAD) of the insect antennae to solid phase microextraction (SPME: CAR/PDMS) samples of clove essential oil in a 20 ml glass vial for 20 sec.
as §1, with “control. […]” for “control.”

[9] = Aedes aegypti females, release rate per chemical (1-60 mg/day), 10 min
[10] = Anopheles stephensi females, release rate per chemical (β-Caryophyllene 10 mg/day), 10 min
[11] = Phlebotomus papatasi females, release rate per chemical, 10 min
[12] = 10 μg/cm^2, DEET values are the positive control run with the chemical

C=C(C)[C@@H]1CC[C@H](C)C2=C(C1)[C@@H](C)CC2 [α-Guaiene, α-guaiene]
GC-EAD antennal activity [1]: elicited EAD-activity | Number of mosquitoes in each arm: Blank [2, 9]: 49 | Number of mosquitoes in each arm: Bottom [2, 9]: 16 | Number of mosquitoes in each arm: Repellent ([2]; Aedes aegypti females, release rate per chemical (1-60 mg/day), 10 min, two replicates pooled): 13 | SAI (Spatial Activity Index) ([2]; Aedes aegypti, (Nc − Nt)/(Nc + Nt), −1 to 1, zero indicating no response): 0.58 | Number of mosquitoes in each arm: Repellent ([3]; Anopheles stephensi females, release rate per chemical (1-60 mg/day; β-Caryophyllene 10 mg/day), 10 min): 6 | Number of mosquitoes in each arm: Blank [3, 10]: 20 | Number of mosquitoes in each arm: Bottom [3, 10]: 40 | SAI (Spatial Activity Index) ([3]; Anopheles stephensi, β-Caryophyllene 10 mg/day): 0.54 | SAI (Spatial Activity Index) ([4]; Phlebotomus papatasi): 0.78 | Number of mosquitoes in each arm: Repellent ([4]; Phlebotomus papatasi (sand fly) females, release rate per chemical (1-35 mg/day), 10 min): 5 | Number of mosquitoes in each arm: Blank [4, 11]: 41 | Number of mosquitoes in each arm: Bottom [4, 11]: 17 | % of biting (±SE) (N = 3) [5, 12]: 33 ± 7b % | % of biting (±SE) (N = 3) ([5]; 100 μg/cm^2): 0 ± 0a % | % of biting (±SE) (N = 3) ([5]; 500 μg/cm^2): 0 ± 0a % | % of biting (±SE) (N = 3) ([5]; 1000 μg/cm^2): 0 ± 0a % | % of biting (±SE) (N = 3) [6, 12]: 40 ± 0b % | % of biting (±SE) (N = 3) ([6]; 100 μg/cm^2): 0 ± 0a % | % of biting (±SE) (N = 3) ([6]; 500 μg/cm^2): 0 ± 0a % | % of biting (±SE) (N = 3) ([6]; 1000 μg/cm^2): 0 ± 0a % | spatial repellency, in words [7]: showed spatial repellency effects

C=CCc1ccc(O)c(OC)c1 [eugenol]
GC-EAD antennal activity [8]: EAD-inactive (or weakly active)

Reference: patent US8057829B2, “Methods for repelling insects using sesquiterpene hydrocarbons and their derivatives” (Sterling International Inc., priority 2008, dated 2011)
